Measured values from ChEMBL document CHEMBL2380230, “Potency switch between CHK1 and MK2: discovery of imidazo[1,2-a]pyrazine- and imidazo[1,2-c]pyrimidine-based kinase inhibitors” (Bioorg Med Chem Lett, 2013).
pIC50: −log10 of the molar value.

Experiments:
[1] = molecular target: T1, Serine/threonine-protein kinase Chk1 (Homo sapiens, UniProt O14757); test: Inhibition of CHK1 (unknown origin)
T1 sequence (O14757 whole entry): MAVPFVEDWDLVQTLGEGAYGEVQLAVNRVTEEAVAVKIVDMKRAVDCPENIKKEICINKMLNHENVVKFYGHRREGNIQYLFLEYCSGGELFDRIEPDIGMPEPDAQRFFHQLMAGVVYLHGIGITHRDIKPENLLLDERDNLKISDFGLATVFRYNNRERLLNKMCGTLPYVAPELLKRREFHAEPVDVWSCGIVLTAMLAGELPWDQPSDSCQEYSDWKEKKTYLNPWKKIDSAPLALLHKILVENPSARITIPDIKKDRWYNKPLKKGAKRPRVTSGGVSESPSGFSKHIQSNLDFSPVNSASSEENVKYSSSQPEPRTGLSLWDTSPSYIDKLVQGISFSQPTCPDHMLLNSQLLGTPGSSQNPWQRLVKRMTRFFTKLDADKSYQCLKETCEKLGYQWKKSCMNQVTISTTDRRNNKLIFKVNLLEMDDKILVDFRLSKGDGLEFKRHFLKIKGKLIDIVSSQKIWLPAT

[2] = molecular target: T2, MAP kinase-activated protein kinase 2 (Homo sapiens, UniProt P49137); test: Inhibition of human recombinant MK2
Target sequence in this assay (P49137 whole entry): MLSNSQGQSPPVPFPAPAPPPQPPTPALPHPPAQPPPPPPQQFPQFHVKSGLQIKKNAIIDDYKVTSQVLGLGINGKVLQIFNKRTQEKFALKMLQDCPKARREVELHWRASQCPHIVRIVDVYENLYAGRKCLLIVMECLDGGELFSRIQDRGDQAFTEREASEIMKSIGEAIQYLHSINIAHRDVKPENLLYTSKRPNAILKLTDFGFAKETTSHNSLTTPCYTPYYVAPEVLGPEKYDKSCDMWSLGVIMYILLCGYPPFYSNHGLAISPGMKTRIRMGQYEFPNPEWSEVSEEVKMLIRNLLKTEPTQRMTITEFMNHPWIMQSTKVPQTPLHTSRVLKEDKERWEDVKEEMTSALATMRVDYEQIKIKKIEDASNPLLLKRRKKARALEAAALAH

[3] = molecular target: T2, MAP kinase-activated protein kinase 2; test: Inhibition of human recombinant MK2 at 10 uM
Target sequence in this assay (P49137 whole entry, looked up): as the sequence (P49137 whole entry) above

[4] = molecular target: T3, Testis-specific serine/threonine-protein kinase 2 (Homo sapiens, UniProt Q96PF2); test: Inhibition of human TSSK2
T3 sequence (Q96PF2 whole entry): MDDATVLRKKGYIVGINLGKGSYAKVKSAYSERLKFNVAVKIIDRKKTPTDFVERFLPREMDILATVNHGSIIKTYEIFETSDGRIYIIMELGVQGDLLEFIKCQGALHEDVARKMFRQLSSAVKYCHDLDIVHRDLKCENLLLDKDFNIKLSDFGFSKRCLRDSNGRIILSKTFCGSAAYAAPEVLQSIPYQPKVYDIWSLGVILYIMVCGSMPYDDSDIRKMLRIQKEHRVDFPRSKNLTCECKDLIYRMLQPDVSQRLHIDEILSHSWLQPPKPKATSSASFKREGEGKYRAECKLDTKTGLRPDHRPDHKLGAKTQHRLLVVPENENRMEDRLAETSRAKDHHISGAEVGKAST

[5] = molecular target: Tyrosine-protein kinase JAK2 (Homo sapiens, UniProt O60674); test: Inhibition of human JAK2
[6] = molecular target: Insulin-like growth factor 1 receptor (Homo sapiens, UniProt P08069); test: Inhibition of human IGF1R
[7] = molecular target: Casein kinase I isoform delta (Homo sapiens, UniProt P48730); test: Inhibition of human CSNK1D
[8] = molecular target: T4, Inhibitor of nuclear factor kappa-B kinase subunit beta (Homo sapiens, UniProt O14920); test: Inhibition of human IKKB
T4 sequence (O14920 whole entry): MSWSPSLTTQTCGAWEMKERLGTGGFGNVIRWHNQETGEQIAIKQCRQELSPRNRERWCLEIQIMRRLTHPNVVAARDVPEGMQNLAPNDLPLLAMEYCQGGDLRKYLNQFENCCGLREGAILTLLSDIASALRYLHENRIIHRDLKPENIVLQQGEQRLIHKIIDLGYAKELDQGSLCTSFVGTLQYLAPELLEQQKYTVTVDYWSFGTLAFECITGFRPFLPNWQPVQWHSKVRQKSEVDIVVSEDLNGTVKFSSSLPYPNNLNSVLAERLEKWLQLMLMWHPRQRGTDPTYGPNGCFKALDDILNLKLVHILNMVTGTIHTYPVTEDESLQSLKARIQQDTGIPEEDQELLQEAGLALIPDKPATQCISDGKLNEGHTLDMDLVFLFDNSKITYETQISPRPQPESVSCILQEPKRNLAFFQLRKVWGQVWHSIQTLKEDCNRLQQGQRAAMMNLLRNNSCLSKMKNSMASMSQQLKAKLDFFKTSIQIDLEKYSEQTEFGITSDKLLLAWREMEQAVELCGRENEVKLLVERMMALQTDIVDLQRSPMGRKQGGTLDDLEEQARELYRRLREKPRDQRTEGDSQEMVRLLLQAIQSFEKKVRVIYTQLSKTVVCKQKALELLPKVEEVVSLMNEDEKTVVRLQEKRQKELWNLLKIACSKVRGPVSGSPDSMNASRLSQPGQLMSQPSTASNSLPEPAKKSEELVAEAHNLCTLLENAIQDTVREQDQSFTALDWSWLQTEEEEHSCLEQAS

[9] = molecular target: Mitogen-activated protein kinase 1 (Homo sapiens, UniProt P28482); test: Inhibition of human ERK2
[10] = molecular target: Hepatocyte growth factor receptor (Homo sapiens, UniProt P08581); test: Inhibition of human MET
[11] = molecular target: Tyrosine-protein kinase Lck (Homo sapiens, UniProt P06239); test: Inhibition of human LCK
[12] = molecular target: RAC-alpha serine/threonine-protein kinase (Homo sapiens, UniProt P31749); test: Inhibition of human AKT1
Chain of RAC-alpha serine/threonine-protein kinase (P31749 whole entry): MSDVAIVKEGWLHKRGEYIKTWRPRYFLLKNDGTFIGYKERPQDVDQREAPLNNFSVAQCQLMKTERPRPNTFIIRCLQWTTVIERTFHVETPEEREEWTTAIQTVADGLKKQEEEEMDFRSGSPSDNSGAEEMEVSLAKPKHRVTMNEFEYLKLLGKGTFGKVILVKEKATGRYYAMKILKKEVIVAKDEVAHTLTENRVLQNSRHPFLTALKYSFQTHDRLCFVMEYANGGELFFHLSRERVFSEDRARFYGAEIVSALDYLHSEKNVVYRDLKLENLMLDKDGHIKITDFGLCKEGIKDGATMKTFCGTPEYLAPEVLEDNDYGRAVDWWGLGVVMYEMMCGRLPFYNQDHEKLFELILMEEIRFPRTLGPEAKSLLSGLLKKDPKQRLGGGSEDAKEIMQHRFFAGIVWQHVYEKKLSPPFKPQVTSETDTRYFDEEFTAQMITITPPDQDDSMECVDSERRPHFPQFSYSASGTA

Chain of Tyrosine-protein kinase Lck (P06239 whole entry): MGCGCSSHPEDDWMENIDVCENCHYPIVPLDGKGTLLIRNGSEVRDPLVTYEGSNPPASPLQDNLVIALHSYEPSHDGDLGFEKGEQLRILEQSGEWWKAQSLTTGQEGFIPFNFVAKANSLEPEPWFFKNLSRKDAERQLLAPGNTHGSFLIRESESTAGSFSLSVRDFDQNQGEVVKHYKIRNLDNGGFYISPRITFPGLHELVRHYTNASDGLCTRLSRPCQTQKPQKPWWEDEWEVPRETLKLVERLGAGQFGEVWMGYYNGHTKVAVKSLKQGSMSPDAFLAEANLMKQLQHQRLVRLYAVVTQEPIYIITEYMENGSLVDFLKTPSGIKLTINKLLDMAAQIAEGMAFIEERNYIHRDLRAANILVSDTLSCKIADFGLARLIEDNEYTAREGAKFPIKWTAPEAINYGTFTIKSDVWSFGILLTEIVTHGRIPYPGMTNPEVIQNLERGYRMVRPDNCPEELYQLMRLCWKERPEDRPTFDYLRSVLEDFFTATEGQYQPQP
Chain of Hepatocyte growth factor receptor (P08581 whole entry): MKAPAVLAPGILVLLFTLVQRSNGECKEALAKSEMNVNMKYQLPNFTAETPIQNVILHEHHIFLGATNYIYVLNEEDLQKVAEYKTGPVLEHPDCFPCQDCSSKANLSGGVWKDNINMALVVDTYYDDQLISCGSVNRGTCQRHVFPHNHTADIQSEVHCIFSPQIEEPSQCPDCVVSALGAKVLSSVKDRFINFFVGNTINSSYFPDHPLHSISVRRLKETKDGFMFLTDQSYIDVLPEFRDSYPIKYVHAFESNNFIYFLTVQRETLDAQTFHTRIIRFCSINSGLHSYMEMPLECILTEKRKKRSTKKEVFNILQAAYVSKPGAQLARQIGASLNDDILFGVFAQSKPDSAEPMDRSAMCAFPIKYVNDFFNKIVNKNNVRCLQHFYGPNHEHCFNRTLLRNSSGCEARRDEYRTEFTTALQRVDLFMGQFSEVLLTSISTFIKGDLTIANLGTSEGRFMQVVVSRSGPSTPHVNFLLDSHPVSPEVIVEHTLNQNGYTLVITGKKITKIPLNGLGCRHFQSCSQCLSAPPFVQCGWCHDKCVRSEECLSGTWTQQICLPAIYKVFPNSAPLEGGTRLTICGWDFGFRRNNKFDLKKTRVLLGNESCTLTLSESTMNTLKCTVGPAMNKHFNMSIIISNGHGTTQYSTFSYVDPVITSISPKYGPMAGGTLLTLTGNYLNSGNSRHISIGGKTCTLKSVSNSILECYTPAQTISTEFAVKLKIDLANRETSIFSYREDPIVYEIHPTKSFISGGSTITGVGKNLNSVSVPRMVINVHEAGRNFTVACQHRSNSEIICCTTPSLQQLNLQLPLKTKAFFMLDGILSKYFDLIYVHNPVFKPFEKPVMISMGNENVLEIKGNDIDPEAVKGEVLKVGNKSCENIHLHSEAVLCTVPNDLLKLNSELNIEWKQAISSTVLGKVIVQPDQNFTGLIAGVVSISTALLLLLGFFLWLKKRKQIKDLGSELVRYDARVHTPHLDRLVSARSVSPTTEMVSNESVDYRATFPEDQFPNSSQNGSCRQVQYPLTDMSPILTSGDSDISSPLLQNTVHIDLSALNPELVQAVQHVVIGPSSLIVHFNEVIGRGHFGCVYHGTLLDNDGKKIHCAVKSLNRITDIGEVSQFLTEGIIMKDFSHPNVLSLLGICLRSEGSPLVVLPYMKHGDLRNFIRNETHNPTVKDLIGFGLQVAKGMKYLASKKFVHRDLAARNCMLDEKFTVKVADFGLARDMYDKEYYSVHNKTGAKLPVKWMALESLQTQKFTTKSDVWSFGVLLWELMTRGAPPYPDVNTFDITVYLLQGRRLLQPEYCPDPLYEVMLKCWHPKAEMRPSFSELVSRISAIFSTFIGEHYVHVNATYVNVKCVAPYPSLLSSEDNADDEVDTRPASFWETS
Chain of Casein kinase I isoform delta (P48730 whole entry, canonical isoform): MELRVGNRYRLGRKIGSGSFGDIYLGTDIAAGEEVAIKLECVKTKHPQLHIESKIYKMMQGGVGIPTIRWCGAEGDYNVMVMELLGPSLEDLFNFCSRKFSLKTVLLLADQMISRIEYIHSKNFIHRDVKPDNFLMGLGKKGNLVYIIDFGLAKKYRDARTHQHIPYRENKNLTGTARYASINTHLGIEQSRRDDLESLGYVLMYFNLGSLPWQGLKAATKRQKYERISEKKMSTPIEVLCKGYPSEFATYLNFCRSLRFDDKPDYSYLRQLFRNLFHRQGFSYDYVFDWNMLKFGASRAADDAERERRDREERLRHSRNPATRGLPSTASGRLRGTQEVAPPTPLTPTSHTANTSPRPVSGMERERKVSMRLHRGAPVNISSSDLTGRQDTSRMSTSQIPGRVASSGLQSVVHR
Chain of Tyrosine-protein kinase JAK2 (O60674 whole entry): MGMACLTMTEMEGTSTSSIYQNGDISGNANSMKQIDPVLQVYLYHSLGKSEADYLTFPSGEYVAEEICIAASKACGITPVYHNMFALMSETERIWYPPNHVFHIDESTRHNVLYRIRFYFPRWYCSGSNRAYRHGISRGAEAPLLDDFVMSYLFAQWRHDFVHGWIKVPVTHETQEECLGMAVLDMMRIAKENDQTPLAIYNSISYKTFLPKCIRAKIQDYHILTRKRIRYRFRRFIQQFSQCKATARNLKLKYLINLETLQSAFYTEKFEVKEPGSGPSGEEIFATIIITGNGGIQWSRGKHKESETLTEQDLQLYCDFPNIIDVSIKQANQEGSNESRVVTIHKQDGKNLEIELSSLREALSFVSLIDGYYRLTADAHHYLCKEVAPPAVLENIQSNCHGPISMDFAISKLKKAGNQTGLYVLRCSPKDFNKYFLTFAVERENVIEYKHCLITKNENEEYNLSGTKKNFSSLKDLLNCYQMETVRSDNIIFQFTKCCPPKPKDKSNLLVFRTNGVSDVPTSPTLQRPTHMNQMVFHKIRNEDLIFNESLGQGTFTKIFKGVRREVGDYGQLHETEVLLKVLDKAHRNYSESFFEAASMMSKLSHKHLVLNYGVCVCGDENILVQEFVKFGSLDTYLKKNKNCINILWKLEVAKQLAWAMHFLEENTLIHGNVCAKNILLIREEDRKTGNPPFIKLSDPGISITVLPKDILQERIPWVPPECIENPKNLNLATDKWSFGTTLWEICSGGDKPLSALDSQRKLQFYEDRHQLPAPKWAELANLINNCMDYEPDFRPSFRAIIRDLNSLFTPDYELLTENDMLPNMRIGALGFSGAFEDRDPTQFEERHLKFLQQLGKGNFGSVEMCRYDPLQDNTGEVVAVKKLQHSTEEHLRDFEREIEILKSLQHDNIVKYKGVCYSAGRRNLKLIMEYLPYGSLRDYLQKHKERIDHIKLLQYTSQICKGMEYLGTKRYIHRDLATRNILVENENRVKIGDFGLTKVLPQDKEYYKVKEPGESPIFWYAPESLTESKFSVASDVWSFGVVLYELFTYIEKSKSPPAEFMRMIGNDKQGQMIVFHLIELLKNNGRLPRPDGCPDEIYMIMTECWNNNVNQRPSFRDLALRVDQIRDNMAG
Chain of Mitogen-activated protein kinase 1 (P28482 whole entry): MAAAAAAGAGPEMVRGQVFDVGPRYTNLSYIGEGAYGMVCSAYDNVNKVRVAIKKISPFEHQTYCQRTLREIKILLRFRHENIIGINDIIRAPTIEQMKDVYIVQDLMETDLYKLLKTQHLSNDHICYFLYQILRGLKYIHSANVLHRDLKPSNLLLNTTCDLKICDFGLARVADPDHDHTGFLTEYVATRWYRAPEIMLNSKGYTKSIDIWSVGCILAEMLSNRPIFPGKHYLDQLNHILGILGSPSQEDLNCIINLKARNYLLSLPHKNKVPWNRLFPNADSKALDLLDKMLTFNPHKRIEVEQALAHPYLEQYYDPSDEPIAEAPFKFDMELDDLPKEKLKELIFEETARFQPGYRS

SMILES	pIC50 [1]	pIC50 [2]	further results
NC(=O)c1ncc(N[C@H]2CCCNC2)c2nc(-c3ccc(Cl)cc3)cn12	7.74	6.08	–
NC(=O)c1cnc(NCC2CCCNC2)n2cc(-c3ccc(Cl)cc3)nc12 (stereo not given)	4.30	–	inhibition [3]: 61%
CN[C@H]1CC[C@H](Nc2ncc(C(N)=O)n3cc(-c4ccc(Cl)cc4)nc23)CC1	6.05	6.40	–
NC(=O)c1cnc(N[C@H]2CC[C@H](N)CC2)n2cc(-c3ccc(Cl)cc3)nc12	4.30	5.40	–
NC(=O)c1cnc(N[C@H]2CC[C@H](N)CC2)c2nc(-c3ccc(Cl)c(Cl)c3)cn12	5.29	6.09	–
NC(=O)c1cnc(N[C@H]2CC[C@H](N)CC2)c2nc(-c3ccc(Cl)cc3)cn12	–	–	pIC50 [4]: 4.92; pIC50 [5]: 4.89; pIC50 [6]: 4.92; pIC50 [7]: 4.92; pIC50 [8]: < 4.52; pIC50 [9]: < 4.52; pIC50 [10]: < 4.52; pIC50 [11]: 6.00; pIC50 [12]: < 4.52
NC(=O)c1cnc(N[C@@H]2CCNC2)n2cc(-c3ccc(Cl)cc3)nc12	4.38	–	inhibition [3]: 56%
NC(=O)c1ncc(N[C@H]2CC[C@H](N)CC2)c2nc(-c3ccc(Cl)cc3)cn12	–	5.70	–
NC(=O)c1cnc(Nc2cccnc2)c2nc(-c3ccc(Cl)cc3)cn12	–	5.00	–
NC(=O)c1cnc(N[C@H]2CCCNC2)c2nc(-c3ccc(F)cc3)cn12	7.57	6.04	–
NCCCNc1ncc(C(N)=O)n2cc(-c3ccc(Cl)cc3)nc12	6.54	5.39	–
NC(=O)c1cnc(N[C@H]2CCCNC2)c2nc(-c3ccc4ccccc4c3)cn12	7.64	6.04	–
NC(=O)c1cnc(N[C@H]2CCCNC2)n2cc(-c3ccc(Cl)cc3)nc12	–	–	inhibition [3]: 67%
NC(=O)c1cnc(NC2CCNCC2)c2nc(-c3ccc(Cl)cc3)cn12	6.16	5.38	–
CN1CCC(Nc2ncc(C(N)=O)c3nc(-c4ccc(Cl)cc4)cn23)CC1	4.30	–	inhibition [3]: 69%
NC(=O)c1cnc(N[C@H]2CC[C@@H](N)CC2)c2nc(-c3ccc(Cl)cc3)cn12	–	5.72	–
